# Measurements published in patent US8658644B2, “Pyridazine derivatives, processes for their preparation and their use as fungicides” (Syngenta Crop Protection, LLC, priority 2011, dated 2014).
# How the values were obtained:
# [1] = tested on: Pyrenophora teres (Helminthosporium teres); test: Pyrenophora teres (Helminthosporium teres) / barley / preventative; assay type: in vivo; conditions: barley plants cv. Regina, inoculated 2 days after application, leaf area covered by disease 5 to 7 days after application, read-out: inhibited fungal infestation
# Procedure: Pyrenophora teres (Helminthosporium teres)/Barley/Preventative (Action Against Net Blotch on Barley) 1-week old barley plants cv. Regina were treated with the formulated test compound in a spray chamber. The test plants were inoculated by spraying them with a spore suspension 2 days after application. The inoculated test plants were incubated at 20° C. and 95% rh and the percentage leaf area covered by disease was assessed when an appropriate level of disease appears on untreated check plants (5 to 7 days after application).
# [2] = tested on: Magnaporthe grisea (Pyricularia oryzae); test: whole plant or invertebrate; assay type: in vivo; conditions: read-out: inhibited fungal infestation
# [3] = tested on: Botryotinia fuckeliana (Botrytis cinerea); test: Botryotinia fuckeliana (Botrytis cinerea) / tomato / preventative; assay type: in vivo; conditions: tomato plants cv. Roter Gnom, inoculated two days after application, leaf area covered by disease 5 to 6 days after application, read-out: inhibited fungal infestation
# Procedure: (§1) Botryotinia fuckeliana (Botrytis cinerea)/Tomato/Preventative (Action Against Botrytis on Tomato) 4-week old tomato plants cv. Roter Gnom were treated with the formulated test compound in a spray chamber. The test plants were inoculated by spraying them with a spore suspension two days after application. The inoculated test plants were incubated at 20° C. and 95% rh in a greenhouse and the percentage leaf area covered by disease is assessed when an appropriate level of disease appears on untreated check plants (5 to 6 days after application).
# [4] = tested on: Alternaria Solani; test: Alternaria solani / tomato / preventative; assay type: in vivo; conditions: tomato plants cv. Roter Gnom, inoculated two days after application, leaf area covered by disease 5 to 7 days after application, read-out: inhibited fungal infestation
# Procedure: as §1, with “Alternaria Solani/Tomato/Preventative (Action” for “Botryotinia fuckeliana (Botrytis cinerea)/Tomato/Preventative (Action”, “Against Alternaria” for “Against Botrytis”, “at 22/18°” for “at 20°”, “C. (day/night)” for “C.”, “disease was” for “disease is”, “to 7” for “to 6”
# [5] = tested on: Mycosphaerella graminicola (Septoria tritici); test: Mycosphaerella graminicola (Septoria tritici) / wheat / curative; assay type: in vivo; conditions: Zymoseptoria tritici, wheat plants cv. Riband, treated 5 days after inoculation, leaf area covered by disease 11 to 14 days after application, read-out: inhibited fungal infestation
# Procedure: Mycosphaerella graminicola (Septoria tritici)/Wheat/Curative (Action Against Septoria Leaf Spot on Wheat) 2-week old wheat plants cv. Riband are inoculated by spraying them with a spore suspension. After an incubation period of 2 days at 22° C./21° C. (day/night) and 95% rh, the test plants are kept at 22° C./21° C. (day/night) and 70% rh in a climate chamber. The inoculated test plants are treated with the formulated test compound in a spray chamber 5 days after inoculation. The percentage leaf area covered by disease is assessed when an appropriate level of disease appears on untreated check plants (11 to 14 days after application).
# [6] = tested on: Erysiphe necator (Uncinula necator); test: Erysiphe necator (Uncinula necator) / grape / preventative; assay type: in vivo; conditions: grape seedlings cv. Gutedel, inoculated 1 day after application, leaf area covered by disease 7 to 9 days after application, read-out: inhibited fungal infestation
# Procedure: Erysiphe necator (Uncinula necator)/Grape/Preventative (Action Against Powdery Mildew on Grape) 5-week old grape seedlings cv. Gutedel were treated with the formulated test compound in a spray chamber. The test plants are inoculated by shaking plants infected with grape powdery mildew above them 1 day after application. The inoculated test plants were incubated at 24/22° C. (day/night) and 70% rh under a light regime of 14/10 h (light/dark) and the percentage leaf area covered by disease was assessed when an appropriate level of disease appears on untreated check plants (7 to 9 days after application).
# [7] = tested on: Mycosphaerella graminicola (Septoria tritici); test: Mycosphaerella graminicola (Septoria tritici) / wheat / preventive; assay type: in vivo; conditions: Zymoseptoria tritici, wheat plants cv. Riband, inoculated one day after application, leaf area covered by disease 16 to 19 days after application, read-out: inhibited fungal infestation
# Procedure: Mycosphaerella graminicola (Septoria tritici)/Wheat/Preventive (Action Against Septoria Leaf Spot on Wheat) 2-week old wheat plants cv. Riband were treated with the formulated test compound in a spray chamber. The test plants were inoculated by spraying a spore suspension on them one day after application. After an incubation period of 1 day at 22° C./21° C. (day/night) and 95% rh, the test plants were kept at 22° C./21° C. (day/night) and 70% rh in a greenhouse. The percentage leaf area covered by disease is assessed when an appropriate level of disease appears on untreated check plants (16 to 19 days after application).
# [8] = tested on: Puccinia recondita; test: Puccinia recondita / wheat / preventative; assay type: in vivo; conditions: wheat plants cv. Arina, inoculated one day after application, leaf area covered by disease 12 to 14 days after application, read-out: inhibited fungal infestation
# Procedure: Puccinia recondita/Wheat/Preventative (Action Against Brown Rust on Wheat) 2-week old wheat plants cv. Arina were treated with the formulated test compound in a spray chamber. The test plants were inoculated by spraying them with a spore suspension one day after application. After an incubation period of 1 day at 20° C. and 95% rh, the test plants were kept at 20° C./18° C. (day/night) and 60% rh in a greenhouse. The percentage leaf area covered by disease was assessed when an appropriate level of disease appears on untreated check plants (12 to 14 days after application).
SMILES,melting point [°C],inhibition at 200 ppm [1] [%],inhibition at 200 ppm [2] [%],inhibition at 200 ppm [3] [%],inhibition at 200 ppm [4] [%],inhibition at 200 ppm [5] [%],inhibition at 200 ppm [6] [%],inhibition at 200 ppm [7] [%],inhibition at 200 ppm [8] [%]
"C#Cc1ccc(-c2c(C)n[nH]c(=O)c2-c2c(F)cc(F)cc2F)cc1 [Compound 1, 5-(4-ethynylphenyl)-6-methyl-4-(2,4,6-trifluorophenyl)-2H-pyridazin-3-one]",252 to 254,–,–,–,–,–,–,–,–
"C#Cc1ccc(-c2c(C)nnc(Cl)c2-c2c(F)cc(F)cc2F)cc1 [Compound 2, 3-chloro-5-(4-ethynylphenyl)-6-methyl-4-(2,4,6-trifluorophenyl)pyridazine]",174 to 175,≥ 80,≥ 80,≥ 80,≥ 80,≥ 80,≥ 80,≥ 80,≥ 80
"C#Cc1ccc(-c2c(C)nnc(OC)c2-c2c(F)cc(OC)cc2F)cc1 [Compound 4, 4-(2,6-difluoro-4-methoxyphenyl)-5-(4-ethynylphenyl)-3-methoxy-6-methylpyridazine]",192 to 193,≥ 80,≥ 80,≥ 80,≥ 80,≥ 80,–,≥ 80,–
